Assay: recombinant UMI read abundance after kanamycin selection (control-corrected) (log10(CPM+1)); higher = more efficient recombination; extreme values may be limits of the assay; sequences stand for … in AGTGCAGAGAAAATCGGCCAGTTTTCTCTGCCTGCAGTCCGCATGCCGTGGGACCCCTTGGGTTCTAACCTGTTGCCTAGATTTATGCAGCGGACTGCCTTTCTCCCAAAGTGATAAACCGG…AGGTTGGTTTCACT; site = the 11-nt donor
Method: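 Pooled E. coli donor-specificity screen for the IS621 bridge recombinase. Each library member carries a reprogrammed 11-nt donor and a full-length LE bridge RNA expressed in cis from the natural promoter, with a paired donor-binding loop (8-nt LDG + 4-nt RDG) and a target-binding loop fixed to T5. It is co-electroporated with a T5 target plasmid; recombinase is induced with 0.07 mM IPTG and recombinants are selected on kanamycin. UMIs are counted as CPM, averaged over two biological replicates and corrected by the unselected control. Molecule = full bridge RNA written as DNA, built from the T5 scaffold: LDG = donor specificity nt 1-8, RDG = reverse complement of nt 8-11.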
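Also: IS621 bridge recombinase in Escherichia coli cells against a fixed T5 target plasmid.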

Row | Sequence | recombinant UMI read abundance (log10)
1 | AACTAAGCATGGACCGGTTTTCCCGGTAATCCGTATTTGGT (site AACTAAGCTAC) | 1.25
2 | AACTAGACATGGACCGGTTTTCCCGGTAATCCGTATTTGGG (site AACTAGACTCC) | 0.0148
3 | AACTAGACATGGACCGGTTTTCCCGGTAATCCGTATTTGGG (site ACCTAGACTCC) | 0.0296
4 | AACTAGACATGGACCGGTTTTCCCGGTAATCCGTATTTGGG (site AGCTAGACTCC) | 0.0187
5 | AACTAGACATGGACCGGTTTTCCCGGTAATCCGTATTTGGG (site ATCTAGACTCC) | 0.0377
6 | AACTAGACATGGACCGGTTTTCCCGGTAATCCGTATTTGGT (site AACTAGACTAC) | 0.776
7 | AACTATTCATGGACCGGTTTTCCCGGTAATCCGTATTTGTC (site AACTATTCTGA) | 0.671
8 | AACTCTACATGGACCGGTTTTCCCGGTAATCCGTATTTGAT (site AACTCTACTAT) | 0.82
9 | AACTGTCCATGGACCGGTTTTCCCGGTAATCCGTATTTGAT (site AACAGTCCTAT) | 0.00914
10 | AACTGTCCATGGACCGGTTTTCCCGGTAATCCGTATTTGAT (site AACCGTCCTAT) | 0.423
11 | AACTGTCCATGGACCGGTTTTCCCGGTAATCCGTATTTGAT (site AACGGTCCTAT) | 0.0127
12 | AACTGTCCATGGACCGGTTTTCCCGGTAATCCGTATTTGAT (site AACTGTCCTAT) | 0.173
13 | AAGAACACATGGACCGGTTTTCCCGGTAATCCGTATTTGAT (site AAGAACACTAT) | 2.22
14 | AAGAAGACATGGACCGGTTTTCCCGGTAATCCGTATTTGCA (site AAGAAGACTTG) | 2.73
15 | AAGAAGACATGGACCGGTTTTCCCGGTAATCCGTATTTGCA (site ACGAAGACTTG) | 1.66
16 | AAGAAGACATGGACCGGTTTTCCCGGTAATCCGTATTTGCA (site AGGAAGACTTG) | 2.2
17 | AAGAAGACATGGACCGGTTTTCCCGGTAATCCGTATTTGCA (site ATGAAGACTTG) | 1.95
18 | AAGAATACATGGACCGGTTTTCCCGGTAATCCGTATTTGCA (site AAGAATACTTG) | 1.67
19 | AAGAATACATGGACCGGTTTTCCCGGTAATCCGTATTTGCA (site CAGAATACTTG) | 1.37
20 | AAGAATACATGGACCGGTTTTCCCGGTAATCCGTATTTGCA (site GAGAATACTTG) | 0
21 | AAGAATACATGGACCGGTTTTCCCGGTAATCCGTATTTGCA (site TAGAATACTTG) | 1.7
22 | AAGACGCCATGGACCGGTTTTCCCGGTAATCCGTATTTGAT (site AAGACGCCTAT) | 0.386
23 | AAGACTACATGGACCGGTTTTCCCGGTAATCCGTATTTGAC (site AAGACTACTGT) | 2.69
24 | AAGACTACATGGACCGGTTTTCCCGGTAATCCGTATTTGAC (site ACGACTACTGT) | 0.383

Row | Sequence | recombinant UMI read abundance (log10)
25 | AAGACTACATGGACCGGTTTTCCCGGTAATCCGTATTTGAC (site AGGACTACTGT) | 1.33
26 | AAGACTACATGGACCGGTTTTCCCGGTAATCCGTATTTGAC (site ATGACTACTGT) | 1.25
27 | AAGATTTCATGGACCGGTTTTCCCGGTAATCCGTATTTGGA (site AAGATTTCTTC) | 2.1
28 | AAGCACGCATGGACCGGTTTTCCCGGTAATCCGTATTTGTG (site AAGCACGCTCA) | 1.42
29 | AAGCACGCATGGACCGGTTTTCCCGGTAATCCGTATTTGTG (site AAGCACGCTCC) | 0
30 | AAGCACGCATGGACCGGTTTTCCCGGTAATCCGTATTTGTG (site AAGCACGCTCG) | 1.22
31 | AAGCACGCATGGACCGGTTTTCCCGGTAATCCGTATTTGTG (site AAGCACGCTCT) | 0.906
32 | AAGCAGGCATGGACCGGTTTTCCCGGTAATCCGTATTTGGG (site AAGCAAGCTCC) | 0.00504
33 | AAGCAGGCATGGACCGGTTTTCCCGGTAATCCGTATTTGGG (site AAGCACGCTCC) | 0.0214
34 | AAGCAGGCATGGACCGGTTTTCCCGGTAATCCGTATTTGGG (site AAGCAGGCTCC) | 0.367
35 | AAGCAGGCATGGACCGGTTTTCCCGGTAATCCGTATTTGGG (site AAGCATGCTCC) | 0.00333
36 | AAGCCAGCATGGACCGGTTTTCCCGGTAATCCGTATTTGGG (site AAGCCAGCTCC) | 0.00996
37 | AAGCGGGCATGGACCGGTTTTCCCGGTAATCCGTATTTGAC (site AAGCGGGCTGT) | 1.62
38 | AAGCTGTCATGGACCGGTTTTCCCGGTAATCCGTATTTGAT (site AAGCTGTCTAT) | 0.353
39 | AAGGACACATGGACCGGTTTTCCCGGTAATCCGTATTTGAG (site AAGGACACTCT) | 2.09
40 | AAGGACGCATGGACCGGTTTTCCCGGTAATCCGTATTTGGG (site AAGAACGCTCC) | 0.307
41 | AAGGACGCATGGACCGGTTTTCCCGGTAATCCGTATTTGGG (site AAGCACGCTCC) | 0.0166
42 | AAGGACGCATGGACCGGTTTTCCCGGTAATCCGTATTTGGG (site AAGGACGCTCC) | 0.789
43 | AAGGACGCATGGACCGGTTTTCCCGGTAATCCGTATTTGGG (site AAGTACGCTCC) | 0.0226
44 | AAGGATCCATGGACCGGTTTTCCCGGTAATCCGTATTTGGT (site AAGGATCCTAC) | 0.373
45 | AAGGGTCCATGGACCGGTTTTCCCGGTAATCCGTATTTGAT (site AAGGGTCCTAT) | 0.0248
46 | AAGGTCACATGGACCGGTTTTCCCGGTAATCCGTATTTGAG (site AAGGTCACTCT) | 1.55
47 | AAGGTCACATGGACCGGTTTTCCCGGTAATCCGTATTTGGA (site AAGGTCACTTC) | 1.14
48 | AAGGTGTCATGGACCGGTTTTCCCGGTAATCCGTATTTGAC (site AAAGTGTCTGT) | 1.13

Row | Sequence | recombinant UMI read abundance (log10)
49 | AAGGTGTCATGGACCGGTTTTCCCGGTAATCCGTATTTGAC (site AACGTGTCTGT) | 0.678
50 | AAGGTGTCATGGACCGGTTTTCCCGGTAATCCGTATTTGAC (site AAGGTGTCTGT) | 3.31
51 | AAGGTGTCATGGACCGGTTTTCCCGGTAATCCGTATTTGAC (site AATGTGTCTGT) | 0
52 | AAGTAATCATGGACCGGTTTTCCCGGTAATCCGTATTTGAG (site AAGTAATCTCT) | 2.78
53 | AAGTAGGCATGGACCGGTTTTCCCGGTAATCCGTATTTGGC (site AAGTAGGCTGC) | 2.2
54 | AAGTAGGCATGGACCGGTTTTCCCGGTAATCCGTATTTGGC (site ACGTAGGCTGC) | 1.04
55 | AAGTAGGCATGGACCGGTTTTCCCGGTAATCCGTATTTGGC (site AGGTAGGCTGC) | 0.265
56 | AAGTAGGCATGGACCGGTTTTCCCGGTAATCCGTATTTGGC (site ATGTAGGCTGC) | 1.41
57 | AAGTCGCCATGGACCGGTTTTCCCGGTAATCCGTATTTGAC (site AAGTCGCCTGT) | 0
58 | AAGTGCACATGGACCGGTTTTCCCGGTAATCCGTATTTGGT (site AAGTGCACTAC) | 0.762
59 | AAGTGTACATGGACCGGTTTTCCCGGTAATCCGTATTTGTG (site AAGTGTACTCA) | 0.962
60 | AATAAACCATGGACCGGTTTTCCCGGTAATCCGTATTTGCC (site AATAAACCTGG) | 0
61 | AATAAACCATGGACCGGTTTTCCCGGTAATCCGTATTTGTG (site AATAAACCTCA) | 0.00291
62 | AATAATTCATGGACCGGTTTTCCCGGTAATCCGTATTTGAT (site AATAATTCTAT) | 0.955
63 | AATAGCACATGGACCGGTTTTCCCGGTAATCCGTATTTGGC (site AATAGCACTGC) | 2.04
64 | AATATGTCATGGACCGGTTTTCCCGGTAATCCGTATTTGAC (site AATATGTCTGT) | 0.953
65 | AATATGTCATGGACCGGTTTTCCCGGTAATCCGTATTTGAC (site AATCTGTCTGT) | 0
66 | AATATGTCATGGACCGGTTTTCCCGGTAATCCGTATTTGAC (site AATGTGTCTGT) | 0
67 | AATATGTCATGGACCGGTTTTCCCGGTAATCCGTATTTGAC (site AATTTGTCTGT) | 0
68 | AATCCCACATGGACCGGTTTTCCCGGTAATCCGTATTTGCT (site AATCCCACTAG) | 1.77
69 | AATCCTCCATGGACCGGTTTTCCCGGTAATCCGTATTTGAT (site AATCCTCCTAT) | 0.344
70 | AATCGAGCATGGACCGGTTTTCCCGGTAATCCGTATTTGGA (site AATCGAGCTTC) | 0.474
71 | AATCTAACATGGACCGGTTTTCCCGGTAATCCGTATTTGCT (site AATATAACTAG) | 0
72 | AATCTAACATGGACCGGTTTTCCCGGTAATCCGTATTTGCT (site AATCTAACTAG) | 0
